The values that follow come from patent US11524934B2, “Phenylamine compounds” (PI INDUSTRIES LTD., priority 2017, dated 2022).

The test system of one assay is Botrytis cinerea. Kind of assay: Botrytis cinerea (Gray mold) in vitro test, radial growth on Potato Dextrose Agar. The conditions noted are these: 168 h, read-out: control.
The subject of another assay is Alternaria solani. Kind of assay: Alternaria solani (early blight of tomato/potato) in vitro test, radial growth on Potato Dextrose Agar. The settings on record: 168 h, read-out: control.
The subject of a further assay is Rhizoctonia solani. The conditions noted are these: 168 h, read-out: control.
For a further assay, the system named is Pyricularia oryzae. Kind of assay: microbe, parasite or virus in culture. In kind it is cell-based. The settings on record: 168 h, read-out: control.
For a further assay, the system named is Phakopsora pachyrhizi. Kind of assay: Phakopsora pachyrhizi test in soybean (in vivo on plants), preventive activity. The settings on record: preventive spray on soybean plants, inoculated one day after treatment, disease severity rated vs untreated check. The method, then:
Example 8 (In Vivo on Plants): Phakopsora pachyrhizi Test in Soybean
Compounds were dissolved in 2% DMSO/Acetone & then mixed with water to the calibrated spray volume of 50 ml and poured into the spray bottles for further applications.
To test the preventive activity of compounds, healthy young soybean plants raised in the greenhouse were sprayed with active compound preparation at the stated application rates inside the spray cabinets using hallowcone nozzles. One day after treatment, the plants were inoculated with spore suspension containing 2.1×10^6 Phakopsora pachyrhizi inoculum. The inoculated plants were then kept in greenhouse chamber at 25° C. temperature & 90% Relative Humidity for disease expression.
A visual assessment of compound's performance was carried out by rating the disease severity (0-100% scale) on treated plants on 3, 7, 10 & 15 days after application. Efficacy (% control) of the compounds was calculated by comparing the disease rating in the treatment with the one of the untreated control. The sprayed plants were also assessed for compound's plant compatibility by recording symptoms like necrosis, chlorosis & stunting.

The next assay has as its system Colletotrichum capsici. Kind of assay: Colletotrichum capsici (anthracnose) in vitro test, radial growth on Potato Dextrose Agar. The conditions noted are these: Colletotrichum truncatum, 168 h, read-out: control.
The next assay deals with Septoria lycopersici. Kind of assay: Septoria lycopersici (Leaf spot of tomato) in vitro test, radial growth on Potato Dextrose Agar. The settings on record: 168 h, read-out: control.
In a further assay the test system is Fusarium culmorum. Kind of assay: Fusarium culmorum (Foot rot of cereals) in vitro test, radial growth on Potato Dextrose Agar. The conditions noted are these: 168 h, read-out: control. In kind it is cell-based.

Description for Alternaria solani: (§1) Compounds of present invention were assessed for activity against one or more of the following: Biological Test Examples, in vitro test
Description for Botrytis cinerea: as §1
Botrytis cinerea (Gray mold): Compounds were dissolved in 0.3% DMSO & then added to Potato Dextrose Agar medium just prior to dispensing it into Petri dishes. 5 ml medium with compound in the desired concentration was dispensed into 60 mm sterile Petri-plates. After solidification each plate was seeded with 5 mm size mycelial disc taken form periphery of actively growing virulent culture plate. Plates were incubated in growth chambers at 22° C. temperature & 90% Relative Humidity for seven days and radial growth was measured.
Description for Colletotrichum capsici: Colletotrichum capsici (anthracnose): Compounds were dissolved in 0.3% DMSO & then added to Potato Dextrose Agar medium just prior to dispensing it into Petri dishes. 5 ml medium with compound in the desired concentration was dispensed into 60 mm sterile petri-plates. After solidification each plate was seeded with 5 mm size mycelial disc taken form periphery of actively growing virulent culture plate. Plates were incubated in growth chambers at 25° C. temperature & 60% Relative Humidity for seven days and radial growth was measured.
Description for Rhizoctonia solani: Rhizoctonia solani (Rice sheath blight/Potato black scurf): Compounds were dissolved in 0.3% DMSO & then added to Potato Dextrose Agar medium just prior to dispensing it into Petri dishes. 5 ml medium with compound in the desired concentration was dispensed into 60 mm sterile Petri-plates. After solidification each plate was seeded with 5 mm size mycelial disc taken form periphery of actively growing virulent culture plate. Plates were incubated in growth chambers at 25° C. temperature & 60% Relative Humidity for seven days and radial growth was measured.
Description for Septoria lycopersici: Septoria lycopersici (Leaf spot of tomato): Compounds were dissolved in 0.3% DMSO & then added to Potato Dextrose Agar medium just prior to dispensing it into Petri dishes. 5 ml medium with compound in the desired concentration was dispensed into 60 mm sterile petri-plates. After solidification each plate was seeded with 5 mm size mycelial disc taken form periphery of actively growing virulent culture plate. Plates were incubated in growth chambers at 25° C. temperature & 70% Relative Humidity for seven days and radial growth was measured.

In general, pest or weed control refers to how far the test organism was held down. Turning to `CCN(C)C=Nc1cc(C)c(C(=O)COc2ccccc2)cc1C` [Compound 2, N′-(2,5-dimethyl-4-(2-phenoxyacetyl)phenyl)-N-ethyl-N-methylformimidamide], the inhibition of growth at 300 ppm with Botrytis cinerea, in the assay with Alternaria solani, in the assay on Rhizoctonia solani, in the assay on Pyricularia oryzae, in the assay on Colletotrichum capsici and in the assay on Septoria lycopersici was greater than 70% throughout. Further, the inhibition of growth at 300 ppm in the assay with Fusarium culmorum was 70%. Besides, the pest or weed control at 500 ppm in the assay with Phakopsora pachyrhizi was greater than 90%.

Regarding `CCN(C)C=Nc1cc(C)c(C(=O)CSc2cccc(C)c2)cc1C` [Compound 5, N′-(2,5-dimethyl-4-(2-(m-tolylthio)acetyl)phenyl)-N-ethyl-N-methylformimidamide], the inhibition of growth at 300 ppm was greater than 70% with Botrytis cinerea; greater than 70% with Alternaria solani; greater than 70% in the assay on Pyricularia oryzae; greater than 70% in the assay with Colletotrichum capsici; greater than 70% in the assay on Septoria lycopersici; 70% in the assay with Fusarium culmorum.

For the molecule `CCN(C)C=Nc1cc(C)c(C(=O)CSc2ccc(C)c(C)c2)cc1C` [Compound 11, N′-(4-(2-((3,4-dimethylphenyl)thio)acetyl)-2,5-dimethylphenyl)-N-ethyl-N-methylformimidamide], the inhibition of growth at 300 ppm in the assay on Botrytis cinerea, with Alternaria solani, in the assay with Rhizoctonia solani, with Pyricularia oryzae, in the assay on Colletotrichum capsici and in the assay with Septoria lycopersici was greater than 70% each time. In addition, in the assay with Fusarium culmorum, the inhibition of growth at 300 ppm was 70%. This molecule came in with a pest or weed control at 500 ppm in the assay with Phakopsora pachyrhizi greater than 90%.

In the case of `CCN(C)C=Nc1cc(C)c(C(=O)COc2cccc(C)c2)cc1C` [Compound 12, N′-(2,5-dimethyl-4-(2-(m-tolyloxy)acetyl)phenyl)-N-ethyl-N-methylformimidamide], the inhibition of growth at 300 ppm in the assay on Botrytis cinerea, with Alternaria solani, with Rhizoctonia solani, in the assay on Pyricularia oryzae, in the assay with Colletotrichum capsici and with Septoria lycopersici was greater than 70% throughout. Also, the inhibition of growth at 300 ppm with Fusarium culmorum is 70%. The pest or weed control at 500 ppm with Phakopsora pachyrhizi is greater than 90%.

For `CCN(C)C=Nc1cc(C)c(C(=O)COc2cccc(Cl)c2)cc1C` [Compound 13, N′-(4-(2-(3-chlorophenoxy)acetyl)-2,5-dimethylphenyl)-N-ethyl-N-methylformimidamide], the inhibition of growth at 300 ppm with Botrytis cinerea, in the assay on Alternaria solani, in the assay on Rhizoctonia solani, with Pyricularia oryzae, in the assay with Colletotrichum capsici and in the assay on Septoria lycopersici was greater than 70% each time. Further, the inhibition of growth at 300 ppm with Fusarium culmorum is 70%. In the assay on Phakopsora pachyrhizi, this molecule registered a pest or weed control at 500 ppm greater than 90%.

As for `CCN(C)C=Nc1cc(C)c(C(=O)CSc2ccc(F)cc2)cc1C` [Compound 28, N-ethyl-N′-(4-(2-((4-fluorophenyl)thio)acetyl)-2,5-dimethylphenyl)-N-methylformimidamide], the inhibition of growth at 300 ppm with Botrytis cinerea, in the assay with Alternaria solani, in the assay on Rhizoctonia solani, in the assay on Pyricularia oryzae, in the assay with Colletotrichum capsici and in the assay on Septoria lycopersici was greater than 70% each time. In addition, the inhibition of growth at 300 ppm in the assay with Fusarium culmorum was 70%.

As for `CCN(C)C=Nc1cc(C)c(C(=O)CN(C)c2ccc(Cl)cc2)cc1C` [Compound 84, N′-(4-(N-(4-chlorophenyl)-N-methylglycyl)-2,5-dimethylphenyl)-N-ethyl-N-methylformimidamide], the inhibition of growth at 300 ppm in the assay on Botrytis cinerea, in the assay with Alternaria solani, in the assay with Rhizoctonia solani, in the assay with Pyricularia oryzae, in the assay on Colletotrichum capsici and in the assay with Septoria lycopersici was greater than 70% each time. Besides, the inhibition of growth at 300 ppm in the assay on Fusarium culmorum was 70%.

With `CCN(C)C=Nc1cc(C)c(C(=O)COc2c(C)cccc2Br)cc1C` [Compound 88, N′-(4-(2-(2-bromo-6-methylphenoxy)acetyl)-2,5-dimethylphenyl)-N-ethyl-N-methylformimidamide], the inhibition of growth at 300 ppm in the assay with Botrytis cinerea, in the assay with Alternaria solani, in the assay with Rhizoctonia solani, in the assay with Pyricularia oryzae, in the assay with Colletotrichum capsici and with Septoria lycopersici was greater than 70% each time. Further, in the assay on Fusarium culmorum, the inhibition of growth at 300 ppm turned out to be 70%.

Take `CCN(C)C=Nc1cc(C)c(C(=O)CSc2ccc(F)cc2F)cc1C` [Compound 102, N′-(4-(2-((2,4-difluorophenyl)thio)acetyl)-2,5-dimethylphenyl)-N-ethyl-N-methylformimidamide]: the inhibition of growth at 300 ppm in the assay with Botrytis cinerea, with Alternaria solani, in the assay with Rhizoctonia solani, with Pyricularia oryzae, in the assay with Colletotrichum capsici and in the assay with Septoria lycopersici was greater than 70% in each case. Besides, in the assay on Fusarium culmorum, the inhibition of growth at 300 ppm worked out at 70%.

In the case of `CCN(C)C=Nc1cc(C)c(C(=O)CSc2c(F)cccc2F)cc1C` [Compound 103, N′-(4-(2-((2,6-difluorophenyl)thio)acetyl)-2,5-dimethylphenyl)-N-ethyl-N-methylformimidamide], the inhibition of growth at 300 ppm in the assay with Botrytis cinerea, in the assay with Alternaria solani, in the assay on Rhizoctonia solani, in the assay on Pyricularia oryzae, with Colletotrichum capsici and with Septoria lycopersici was greater than 70% in each case. In the assay on Fusarium culmorum, the inhibition of growth at 300 ppm was determined as 70%.
